Measurements as given in patent US11737999B2, “Amino acid compositions and methods for the treatment of post-acute sequelae of COVID-19” (AXCELLA HEALTH INC., priority 2021, dated 2023).

Assays:
MCP1/CCL2 = MCP1/CCL2 secretion by ELISA in primary human hepatocytes with FFA + TNFα; format: cell-based
MCP-1 = MCP-1 chemokine secretion in primary human hepatic stellate cells stimulated with TNFα; format: cell-based; settings: hepatic stellate cells, two donors
Col1a1 = Col1a1 gene expression (RT-qPCR) in primary human hepatic stellate cells stimulated with TGFβ1; format: cell-based
IL-6 [1] = assay: IL-6 cytokine secretion in primary human hepatic stellate cells stimulated with TNFα; format: cell-based; settings: hepatic stellate cells, two donors
TNF-α = assay: LPS-induced TNF-α secretion in primary human monocyte-derived macrophages; settings: for TNF-α Measurements Mean (baseline subtracted): 0.15 ng/mL LPS
IL-6 [2] = assay: LPS-induced IL-6 secretion in primary human monocyte-derived macrophages; settings: for IL-6 Measurements, Mean: 0.15 ng/mL LPS, baseline subtracted values
Procollagen Iα1 = Procollagen Iα1 secretion (ELISA) in primary human hepatic stellate cells stimulated with TGFβ1; format: cell-based; settings: for Procollagen lα1 Secretion (Fold Change of 1X), Mean: first donor, TGFβ1 3 ng/mL 24 h
[3] = hepatic stellate cells, three donors

CC(=O)N[C@@H](CS)C(=O)O [N-Acetyl Cysteine, N-acetylcysteine]
MCP1 expression relative to Control, Mean (MCP1/CCL2; Donor 1, Conc. 1000 μM): −0.7629 | MCP1 expression relative to Control, Mean (MCP1/CCL2; Donor 1, Conc. 2500 μM): −2.498 | MCP1 expression relative to Control, Mean (MCP1/CCL2; Donor 1, Conc. 5000 μM): −10.8919 | MCP1 expression relative to Control, Mean (MCP1/CCL2; Donor 1, Conc. 10000 μM): −17.6065 | MCP1 expression relative to Control, Mean (MCP1/CCL2; Donor 2, Conc. 1000 μM): 1.602 | MCP1 expression relative to Control, Mean (MCP1/CCL2; Donor 2, Conc. 2500 μM): −4.0591 | MCP1 expression relative to Control, Mean (MCP1/CCL2; Donor 2, Conc. 5000 μM): −10.5725 | MCP1 expression relative to Control, Mean (MCP1/CCL2; Donor 2, Conc. 10000 μM): −28.4419 | MCP1/CCL2 secretion (summary in words) (MCP1/CCL2; primary human hepatocytes, two healthy donors): significantly decrease MCP1/CCL2 secretion | MCP-1 secretion (summary in words) (MCP-1): significantly reduced MCP-1 secretion in both donors | Col1a1 Fold Expression Relative to Control, Mean (Col1a1; first donor, 1000 μM, single amino acid): 1.00 fold | Col1a1 Fold Expression Relative to Control, Mean (Col1a1; first donor, 10000 μM, single amino acid): 0.76 fold | Col1a1 Fold Expression Relative to Control, Mean (Col1a1; first donor, 5X, normalized to Gapdh, TGFβ1 3 ng/mL 24 h): 1.00 fold | Col1a1 Fold Expression Relative to Control, Mean (Col1a1; first donor, 10X, normalized to Gapdh, TGFβ1 3 ng/mL 24 h): 1.07 fold | Col1a1 Fold Expression Relative to Control, Mean (Col1a1; first donor, 20X, normalized to Gapdh, TGFβ1 3 ng/mL 24 h): 1.02 fold | Col1a1 Fold Expression Relative to Control, Mean (Col1a1; first donor, 40X, normalized to Gapdh, TGFβ1 3 ng/mL 24 h): 0.76 fold | Col1a1 gene expression (summary in words) (Col1a1; [3]): significantly reduced Col1a1 gene expression in all three donors | Col1a1 Fold Expression Relative to Control, Mean (Col1a1; second donor (Table 27), 1000 μM, single amino acid): 0.69 fold | Col1a1 Fold Expression Relative to Control, Mean (Col1a1; second donor (Table 27), 2500 μM, single amino acid): 0.69 fold | Col1a1 Fold Expression Relative to Control, Mean (Col1a1; second donor (Table 27), 5000 μM, single amino acid): 0.69 fold | Col1a1 Fold Expression Relative to Control, Mean (Col1a1; second donor (Table 27), 10000 μM, single amino acid): 0.57 fold | Col1a1 Fold Expression Relative to Control, Mean (Col1a1; second donor (Table 29), 1000 μM, single amino acid): 0.91 fold | Col1a1 Fold Expression Relative to Control, Mean (Col1a1; second donor (Table 29), 2500 μM, single amino acid): 0.82 fold | Col1a1 Fold Expression Relative to Control, Mean (Col1a1; second donor (Table 29), 5000 μM, single amino acid): 0.73 fold | Col1a1 Fold Expression Relative to Control, Mean (Col1a1; second donor (Table 29), 10000 μM, single amino acid): 0.62 fold | Col1a1 Fold Expression Relative to Control, Mean (Col1a1; second donor, 5X, normalized to Gapdh, TGFβ1 3 ng/mL 24 h): 0.69 fold | Col1a1 Fold Expression Relative to Control, Mean (Col1a1; second donor, 10X, normalized to Gapdh, TGFβ1 3 ng/mL 24 h): 0.69 fold | Col1a1 Fold Expression Relative to Control, Mean (Col1a1; second donor, 20X, normalized to Gapdh, TGFβ1 3 ng/mL 24 h): 0.69 fold | Col1a1 Fold Expression Relative to Control, Mean (Col1a1; second donor, 40X, normalized to Gapdh, TGFβ1 3 ng/mL 24 h): 0.57 fold | Col1a1 Fold Expression Relative to Control, Mean (Col1a1; third donor, 5X, normalized to Gapdh, TGFβ1 3 ng/mL 24 h): 0.91 fold | Col1a1 Fold Expression Relative to Control, Mean (Col1a1; third donor, 10X, normalized to Gapdh, TGFβ1 3 ng/mL 24 h): 0.82 fold | Col1a1 Fold Expression Relative to Control, Mean (Col1a1; third donor, 20X, normalized to Gapdh, TGFβ1 3 ng/mL 24 h): 0.73 fold | Col1a1 Fold Expression Relative to Control, Mean (Col1a1; third donor, 40X, normalized to Gapdh, TGFβ1 3 ng/mL 24 h): 0.62 fold | IL-6 secretion (summary in words) (IL-6 [1]): reduced IL-6 secretion in both donors but was only statistically significant in one of two donors | LPS-induced TNF-α secretion (summary in words) (TNF-α; Donor 1): significantly reduced LPS-induced TNF-α secretion | TNF-α Measurements Mean (baseline subtracted) (TNF-α; Donor 1, Conc. 0 X (baseline)): 0 | TNF-α Measurements Mean (baseline subtracted) (TNF-α; Donor 1, Conc. 5 X): −326.24 | TNF-α Measurements Mean (baseline subtracted) (TNF-α; Donor 1, Conc. 10 X): −446.88 | TNF-α Measurements Mean (baseline subtracted) (TNF-α; Donor 1, Conc. 20 X): −561.33 | TNF-α Measurements Mean (baseline subtracted) (TNF-α; Donor 1, Conc. 40 X): −644.49 | LPS-induced TNF-α secretion (summary in words) (TNF-α; Donor 2): significantly reduced LPS-induced TNF-α secretion | TNF-α Measurements Mean (baseline subtracted) (TNF-α; Donor 2, Conc. 0 X (baseline)): 9.47E−15 | TNF-α Measurements Mean (baseline subtracted) (TNF-α; Donor 2, Conc. 5 X): −54.1596 | TNF-α Measurements Mean (baseline subtracted) (TNF-α; Donor 2, Conc. 10 X): −70.8382 | TNF-α Measurements Mean (baseline subtracted) (TNF-α; Donor 2, Conc. 20 X): −88.6528 | TNF-α Measurements Mean (baseline subtracted) (TNF-α; Donor 2, Conc. 40 X): −103.984 | LPS-induced TNF-α secretion (summary in words) (TNF-α; Donor 3): significantly reduced LPS-induced TNF-α secretion | TNF-α Measurements Mean (baseline subtracted) (TNF-α; Donor 3, Conc. 0 X (baseline)): 4.74E−15 | TNF-α Measurements Mean (baseline subtracted) (TNF-α; Donor 3, Conc. 5 X): −33.6246 | TNF-α Measurements Mean (baseline subtracted) (TNF-α; Donor 3, Conc. 10 X): −41.7266 | TNF-α Measurements Mean (baseline subtracted) (TNF-α; Donor 3, Conc. 20 X): −48.4373 | TNF-α Measurements Mean (baseline subtracted) (TNF-α; Donor 3, Conc. 40 X): −55.3093 | LPS-induced IL-6 secretion (summary in words) (IL-6 [2]; Donor 1): significantly reduced LPS-induced IL-6 secretion | LPS-induced IL-6 secretion (summary in words) (IL-6 [2]; Donor 2): significantly reduced LPS-induced IL-6 secretion | IL-6 Measurements, Mean (IL-6 [2]; Donor 2, Conc. 5 X): −0.7946 | IL-6 Measurements, Mean (IL-6 [2]; Donor 2, Conc. 10 X): −9.751 | IL-6 Measurements, Mean (IL-6 [2]; Donor 2, Conc. 40 X): −33.7585 | LPS-induced IL-6 secretion (summary in words) (IL-6 [2]; Donor 3): significantly reduced LPS-induced IL-6 secretion | Procollagen lα1 Secretion (Fold Change of 1X), Mean (Procollagen Iα1; 5X): 0.9175 fold | Procollagen lα1 Secretion (Fold Change of 1X), Mean (Procollagen Iα1; 10X): 0.7939 fold | Procollagen lα1 Secretion (Fold Change of 1X), Mean (Procollagen Iα1; 20X): 0.6593 fold | Procollagen lα1 Secretion (Fold Change of 1X), Mean (Procollagen Iα1; 40X): 0.5076 fold | procollagen Iα1 secretion (summary in words) (Procollagen Iα1; [3]): significantly decrease procollagen Iα1 secretion in two of the three donors | Procollagen Iα1 Secretion, Mean (Procollagen Iα1; second donor, Conc. 5 X): 0.8387 Fold Change of 1X | Procollagen Iα1 Secretion, Mean (Procollagen Iα1; second donor, Conc. 10 X): 0.8877 Fold Change of 1X | Procollagen Iα1 Secretion, Mean (Procollagen Iα1; second donor, Conc. 20 X): 0.7378 Fold Change of 1X | Procollagen Iα1 Secretion, Mean (Procollagen Iα1; second donor, Conc. 40 X): 0.8383 Fold Change of 1X | Procollagen Iα1 Secretion, Mean (Procollagen Iα1; third donor, Conc. 5 X): 1.0897 Fold Change of 1× | Procollagen Iα1 Secretion, Mean (Procollagen Iα1; third donor, Conc. 10 X): 0.9391 Fold Change of 1× | Procollagen Iα1 Secretion, Mean (Procollagen Iα1; third donor, Conc. 20 X): 0.8521 Fold Change of 1× | Procollagen Iα1 Secretion, Mean (Procollagen Iα1; third donor, Conc. 40 X): 0.6962 Fold Change of 1×
